Patent US20230321196A1 (priority 2020, published 2023)
Read-outs that look alike come from different tables or passages of the source. Bridges are numbered along the chain shown (N, C = ends). Where no end group is shown, it is not given here.

Tests used:
[1] = test system: influenzavirus-infected mice; assay type: in vivo; settings: for Score of gross lesion examination of lung: day 5 after inoculation
[2] = test system: influenzavirus PR8(A/PR/8/34 (H1N1)); test: Test III: virus concentration in lung; assay type: in vivo, mice; settings: administered groups vs control group
[3] = test system: influenzavirus-infected mice; assay type: in vivo
[4] = test system: influenzavirus-infected mice; assay type: in vivo; remark: listed apart in the source
[5] = test system: influenzavirus-infected mice; assay type: in vivo; settings: mean ± SE
[6] = test system: COVID-19 patients; settings: 15 ng/kg body weight/min i.v. continuous 72 hours, then 8 hours per day up to day 10; trial still blinded
[7] = test system: influenzavirus-infected mice; assay type: in vivo; remark: listed apart in the source
[8] = test system: influenzavirus-infected mice; assay type: in vivo; settings: left lung, mean ± SE
[9] = test system: influenzavirus-infected mice; assay type: in vivo; remark: listed apart in the source
[10] = test system: influenzavirus-infected mice; assay type: in vivo; settings: for Score of gross lesion examination of lung: day 5 after inoculation; remark: listed apart in the source
[11] = test system: influenzavirus PR8(A/PR/8/34 (H1N1)); test: Test II: virus concentration in lung; assay type: in vivo, mice; settings: for Virus concentration in lung: right lung, day 5 after inoculation, mean ± SE
[12] = 25 nmol/kg i.v., day 1 after inoculation
[13] = 25 nmol/kg i.v., day 2 after inoculation
[14] = 25 nmol/kg i.v., day 3 after inoculation
[15] = 25 nmol/kg i.v., day 4 after inoculation
[16] = 25 nmol/kg i.v., day 5 after inoculation
[17] = 25 nmol/kg tail vein once per day, day 0 after inoculation, mean ± SE
[18] = 250 nmol/kg i.v., day 1 after inoculation
[19] = 250 nmol/kg i.v., day 2 after inoculation
[20] = 250 nmol/kg i.v., day 3 after inoculation
[21] = 250 nmol/kg i.v., day 4 after inoculation
[22] = 250 nmol/kg i.v., day 5 after inoculation
[23] = 250 nmol/kg tail vein once per day, day 0 after inoculation, mean ± SE
[24] = 10 nmol/kg i.v., day 0 after inoculation
[25] = 10 nmol/kg i.v., day 1 after inoculation
[26] = 10 nmol/kg i.v., day 2 after inoculation
[27] = 10 nmol/kg i.v., day 3 after inoculation
[28] = 10 nmol/kg i.v., day 4 after inoculation
[29] = 10 nmol/kg i.v., day 5 after inoculation
[30] = 10 nmol/kg tail vein once per day, 1 day before inoculation, mean ± SE
[31] = 100 nmol/kg i.v., day 0 after inoculation
[32] = 100 nmol/kg i.v., day 1 after inoculation
[33] = 100 nmol/kg i.v., day 2 after inoculation
[34] = 100 nmol/kg i.v., day 3 after inoculation
[35] = 100 nmol/kg i.v., day 4 after inoculation
[36] = 100 nmol/kg i.v., day 5 after inoculation
[37] = 100 nmol/kg tail vein once per day, 1 day before inoculation, mean ± SE
[38] = Test II, administered groups vs control group

60K PEG-AM: adrenomedullin derivative having a PEG group with a weight-average molecular weight of 60 kDa, prepared according to WO 2017/047788
Score of gross lesion examination of lung ([1]; Left lung, 25 nmol/kg i.v. once per day, mean ± SE): 2.0 ± 0.5 | Score of gross lesion examination of lung ([1]; Left lung, 250 nmol/kg i.v. once per day): 2.4 ± 0.2 | Score of gross lesion examination of lung ([1]; Right lung, 25 nmol/kg i.v. once per day): 2.0 ± 0.5 | Score of gross lesion examination of lung ([1]; Right lung, 250 nmol/kg i.v. once per day): 1.9 ± 0.3 | gross lesion formation in the lung ([1]; Test III, administered groups vs control group): significantly suppressed | virus concentration in the lung [2]: significantly decreased | Body weight [3, 12]: 16.4 ± 0.4 | Body weight [3, 13]: 16.3 ± 0.4 | Body weight [3, 14]: 14.5 ± 0.4 | Body weight [3, 15]: 13.9 ± 0.5 | Body weight [3, 16]: 13.9 ± 0.5 | Body weight [3, 17]: 16.4 ± 0.4 | Body weight [3, 18]: 16.1 ± 0.4 | Body weight [3, 19]: 15.8 ± 0.5 | Body weight [3, 20]: 14.3 ± 0.4 | Body weight [3, 21]: 13.7 ± 0.3 | Body weight [3, 22]: 13.3 ± 0.3 | Body weight [3, 23]: 16.4 ± 0.3 | General condition score [4, 12]: 0.0 ± 0.0 | General condition score [4, 13]: 0.1 ± 0.0 | General condition score [4, 14]: 0.5 ± 0.0 | General condition score [4, 15]: 0.7 ± 0.1 | General condition score [4, 16]: 0.9 ± 0.1 | General condition score [4, 17]: 0.0 ± 0.0 | General condition score [4, 18]: 0.0 ± 0.0 | General condition score [4, 19]: 0.1 ± 0.0 | General condition score [4, 20]: 0.5 ± 0.0 | General condition score [4, 21]: 0.8 ± 0.0 | General condition score [4, 22]: 1.0 ± 0.0 | General condition score [4, 23]: 0.0 ± 0.0 | Score of histopathological examination of lung: Pneumonia score ([5]; Table 14, 25 nmol/kg i.v. once per day): 8.3 ± 1.5 | Score of histopathological examination of lung: Pneumonia score ([5]; Table 14, 250 nmol/kg i.v. once per day): 9.4 ± 0.6 | Score of histopathological examination of lung: Pneumonia score ([5]; Table 15, 25 nmol/kg i.v. once per day): 8.3 ± 1.5 | Score of histopathological examination of lung: Pneumonia score ([5]; Table 15, 250 nmol/kg i.v. once per day): 9.4 ± 0.6

CC[C@H](C)[C@H](NC(=O)[C@H](CCC(N)=O)NC(=O)[C@H](Cc1c[nH]cn1)NC(=O)[C@H](C)NC(=O)[C@H](CC(C)C)NC(=O)[C@H](CCCCN)NC(=O)[C@H](CCC(N)=O)NC(=O)[C@@H](NC(=O)[C@@H](NC(=O)[C@@H]1CSSC[C@H](NC(=O)CNC(=O)[C@H](Cc2ccccc2)NC(=O)[C@H](CO)NC(=O)[C@H](CCCNC(=N)N)NC(=O)[C@H](CC(C)C)NC(=O)CNC(=O)[C@H](CCC(N)=O)NC(=O)[C@H](Cc2ccccc2)NC(=O)[C@H](CC(N)=O)NC(=O)[C@H](CC(N)=O)NC(=O)[C@H](CCSC)NC(=O)[C@H](CO)NC(=O)[C@H](CCC(N)=O)NC(=O)[C@H](CCCNC(=N)N)NC(=O)[C@@H](N)Cc2ccc(O)cc2)C(=O)N[C@@H](CCCNC(=N)N)C(=O)N[C@@H](Cc2ccccc2)C(=O)NCC(=O)N[C@@H]([C@@H](C)O)C(=O)N1)[C@@H](C)O)C(C)C)C(=O)N[C@@H](Cc1ccc(O)cc1)C(=O)N[C@@H](CCC(N)=O)C(=O)N[C@@H](Cc1ccccc1)C(=O)N[C@H](C(=O)N[C@@H](CC(=O)O)C(=O)N[C@@H](CCCCN)C(=O)N[C@@H](CC(=O)O)C(=O)N[C@@H](CCCCN)C(=O)N[C@@H](CC(=O)O)C(=O)N[C@@H](CC(N)=O)C(=O)N[C@H](C(=O)N[C@@H](C)C(=O)N1CCC[C@H]1C(=O)N[C@@H](CCCNC(=N)N)C(=O)N[C@@H](CO)C(=O)N[C@@H](CCCCN)C(=O)N[C@H](C(=O)N[C@@H](CO)C(=O)N1CCC[C@H]1C(=O)N[C@@H](CCC(N)=O)C(=O)NCC(=O)N[C@@H](Cc1ccc(O)cc1)C(N)=O)[C@@H](C)CC)C(C)C)[C@@H](C)O [adrenomedullin]
adverse events [6]: no adverse event directly caused by AM has been reported

[Ala-44]hAM(13-52): adrenomedullin analog: peptide of SEQ ID NO: 17, amidated at the C-terminus, disulfide bond formed by two cysteine residues (SFGCRFGTCTVQKLAHQIYQFTDKDKDNVAPASKISPQGY-NH2; disulfide 4-9 (inferred))
Body weight [7, 24]: 15.7 ± 0.3 | Body weight [7, 25]: 16.1 ± 0.3 | Body weight [7, 26]: 15.1 ± 0.3 | Body weight [7, 27]: 14.0 ± 0.3 | Body weight [7, 28]: 13.2 ± 0.2 | Body weight [7, 29]: 12.8 ± 0.2 | Body weight [7, 30]: 15.8 ± 0.2 | Body weight [7, 31]: 15.8 ± 0.2 | Body weight [7, 32]: 16.2 ± 0.3 | Body weight [7, 33]: 15.5 ± 0.2 | Body weight [7, 34]: 14.6 ± 0.3 | Body weight [7, 35]: 13.6 ± 0.2 | Body weight [7, 36]: 12.9 ± 0.1 | Body weight [7, 37]: 15.8 ± 0.2 | Score of histopathological examination of lung: Pneumonia score ([8]; 10 nmol/kg i.v. once per day): 8.9 ± 0.4 | Score of histopathological examination of lung: Pneumonia score ([8]; 100 nmol/kg i.v. once per day): 9.0 ± 0.5 | General condition score [9, 24]: 0.0 ± 0.0 | General condition score [9, 25]: 0.0 ± 0.0 | General condition score [9, 26]: 0.2 ± 0.0 | General condition score [9, 27]: 0.5 ± 0.0 | General condition score [9, 28]: 0.8 ± 0.0 | General condition score [9, 29]: 1.0 ± 0.0 | General condition score [9, 30]: 0.0 ± 0.0 | General condition score [9, 31]: 0.0 ± 0.0 | General condition score [9, 32]: 0.0 ± 0.0 | General condition score [9, 33]: 0.1 ± 0.0 | General condition score [9, 34]: 0.5 ± 0.0 | General condition score [9, 35]: 0.8 ± 0.0 | General condition score [9, 36]: 1.0 ± 0.0 | General condition score [9, 37]: 0.0 ± 0.0 | Score of gross lesion examination of lung ([10]; Left lung, 10 nmol/kg i.v. once per day, mean ± SE): 2.8 ± 0.2 | Score of gross lesion examination of lung ([10]; Left lung, 100 nmol/kg i.v. once per day): 2.6 ± 0.2 | Score of gross lesion examination of lung ([10]; Right lung, 10 nmol/kg i.v. once per day): 2.9 ± 0.1 | Score of gross lesion examination of lung ([10]; Right lung, 100 nmol/kg i.v. once per day): 2.5 ± 0.2 | gross lesion formation in the lung [10, 38]: significantly suppressed | Virus concentration in lung ([11]; 10 nmol/kg i.v. once per day): 53.0 ± 3.0 ×10^4 PFU/right lung | Virus concentration in lung ([11]; 100 nmol/kg i.v. once per day): 43.3 ± 4.6 ×10^4 PFU/right lung | virus concentration in the lung [11, 38]: significantly decreased
